Results taken from patent publication US10077247B2, “Tricyclic spiro compound” (ONO PHARMACEUTICAL CO., LTD., priority 2015, dated 2018).

Experiments:
[1] = Pharmacokinetics test (hepatic microsome stability test); conditions: human hepatic microsome 1 mg/mL, 37° C., 60 min, 1 μmol/L
[2] = target: rat EP4 receptor (Rattus norvegicus (Rat), UniProt P43114); assay: EP4 antagonistic activity measurement using prostanoid receptor subtype expressing cells (cAMP); assay type: cell-based; conditions: CHO cells expressing rat EP4 receptor; inhibition of cAMP production by PGE2 10 nM
Sequence of rat EP4 receptor (P43114 whole entry): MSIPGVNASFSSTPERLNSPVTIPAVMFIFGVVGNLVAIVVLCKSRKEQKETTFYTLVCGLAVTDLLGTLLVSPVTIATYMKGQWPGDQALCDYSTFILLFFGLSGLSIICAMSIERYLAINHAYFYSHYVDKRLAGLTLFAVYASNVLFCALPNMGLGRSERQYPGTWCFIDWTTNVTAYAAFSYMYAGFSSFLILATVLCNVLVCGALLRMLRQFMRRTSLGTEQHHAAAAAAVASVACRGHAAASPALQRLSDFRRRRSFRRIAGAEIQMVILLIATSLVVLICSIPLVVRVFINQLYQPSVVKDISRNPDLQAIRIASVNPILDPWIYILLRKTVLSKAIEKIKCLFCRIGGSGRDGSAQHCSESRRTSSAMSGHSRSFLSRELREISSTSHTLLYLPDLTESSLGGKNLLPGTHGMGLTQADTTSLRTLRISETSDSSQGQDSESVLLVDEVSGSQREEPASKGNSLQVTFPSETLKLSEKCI
Description: CHO cells expressing rat EP4 receptor subtypes were prepared according to the methods of Nishigaki et al. (FEBS Letters, Vol. 364, p. 339-341, 1995), and used for experiment. Cultured subconfluent cells were detached, and suspended in an assay medium (MEM containing 1 mmol/L IBMX, 1% HSA) in a concentration of 1×10^6 cells/mL. For reaction, PGE2 was added to the cell suspension (25 μL) in a final concentration of 10 nmol/L, either alone or as a 25-μL PGE2 solution containing the test compound. After 30 minutes of reaction at room temperature, the amount of cAMP in the cells was quantified according to the method in the descriptions of the cAMP assay kit (CISBIO).
The antagonistic effect (IC50 value) of the test compound was calculated as a value that represents an inhibition rate against a reaction with PGE2 alone at 10 nM, a concentration that produces a submaximal cAMP producing effect.

Cn1cc(NC(=O)c2ccc3c(c2)[C@]2(CC3)C[C@H]2C(=O)Nc2cc(C#N)ccc2CCCC(=O)O)cn1 [Example 18-3, 4-{4-Cyano-2-[({(1R,2R)-6′-[(1-methyl-1H-pyrazol-4-yl)carbamoyl]-2′,3′-dihydrospiro[cyclopropane-1,1′-inden]-2-yl}carbonyl)amino]phenyl}butanoic acid]
Remaining rate (%) [1]: 91%
IC50 [2]: 2.7 nM

CC1(C)C[C@]2(C[C@H]2C(=O)Nc2cc(C#N)ccc2CCCC(=O)O)c2cc(-c3cccnc3)ccc21 [Example 39, 4-[4-Cyano-2-({[(1S,2R)-3′,3′-dimethyl-6′-(3-pyridinyl)-2′,3′-dihydrospiro[cyclopropane-1,1′-inden]-2-yl]carbonyl}amino)phenyl]butanoic acid]
Remaining rate (%) [1]: 78%
IC50 [2]: 5.7 nM

CC(C)(C)n1cc(NC(=O)c2ccc3c(c2)[C@]2(CCO3)C[C@H]2C(=O)Nc2cc(C#N)ccc2CCCC(=O)O)cn1 [Example 2-39, 4-[4-Cyano-2-({[(2′R,4S)-6-{[1-(2-methyl-2-propanyl)-1H-pyrazol-4-yl]carbamoyl}-2,3-dihydrospiro[chromene-4,1′-cyclopropan]-2′-yl]carbonyl}amino)phenyl]butanoic acid]
Remaining rate (%) [1]: 90%
IC50 [2]: 3.4 nM

CCNC(=O)c1ccc2c(c1)[C@]1(CCO2)C[C@H]1C(=O)Nc1cc(C#N)ccc1CCCC(=O)O [Example 2-46, 4-[4-Cyano-2-({[(2′R,4S)-6-(ethylcarbamoyl)-2,3-dihydrospiro[chromene-4,1′-cyclopropan]-2′-yl]carbonyl}amino)phenyl]butanoic acid]
Remaining rate (%) [1]: 90%
IC50 [2]: 3 nM

N#Cc1ccc(CCCC(=O)O)c(NC(=O)[C@@H]2C[C@]23CCOc2ccc(C(=O)NC4CCCC4)cc23)c1 [Example 2-14, 4-[4 Cyano 2-({[(2′R,4S)-6-(cyclopentylcarbamoyl)-2,3-dihydrospiro[chromene-4,1′-cyclopropan]-2′-yl]carbonyl}amino)phenyl]butanoic acid]
Remaining rate (%) [1]: 96%
IC50 [2]: 4.5 nM

N#Cc1ccc(CCCC(=O)O)c(NC(=O)[C@@H]2C[C@]23CCOc2ccc(-n4cccn4)cc23)c1 [Example 7-4, 4-[4-Cyano-2-({[(2′R,4S)-6-(1H-pyrazol-1-yl)-2,3-dihydrospiro[chromene-4,1′-cyclopropan]-2′-yl]carbonyl}amino)phenyl]butanoic acid]
Remaining rate (%) [1]: 71%
IC50 [2]: 2.4 nM

COCCNC(=O)c1cc2c(cc1OC)OCC[C@]21C[C@H]1C(=O)Nc1cc(C#N)ccc1CCCC(=O)O [Example 33-2, 4-{4-Cyano-2-[({(2′R,4S)-7-methoxy-6-[(2-methoxyethyl)carbamoyl]-2,3-dihydrospiro[chromene-4,1′-cyclopropan]-2′-yl}carbonyl)amino]phenyl}butanoic acid]
Remaining rate (%) [1]: 100%
IC50 [2]: 8.4 nM

N#Cc1ccc(CCCC(=O)O)c(NC(=O)[C@@H]2C[C@]23CCOc2ccc(-c4ccc(F)cn4)cc23)c1 [Example 10-9, 4-[4-Cyano-2-({[(2′R,4S)-6-(5-fluoro-2-pyridinyl)-2,3-dihydrospiro[chromene-4,1′-cyclopropan]-2′-yl]carbonyl}amino)phenyl]butanoic acid]
Remaining rate (%) [1]: 75%
IC50 [2]: 6.7 nM

COC[C@H](C)NC(=O)c1ccc2c(c1)[C@]1(CCO2)C[C@H]1C(=O)Nc1cc(C#N)ccc1CCCC(=O)O [Example 2-4, 4-[4-Cyano-2-({[(2′R,4S)-6-{[(2S)-1-methoxy-2-propanyl]carbamoyl}-2,3-dihydrospiro[chromene-4,1′-cyclopropan]-2′-yl]carbonyl}amino)phenyl]butanoic acid]
Remaining rate (%) [1]: 86%
IC50 [2]: 3.3 nM

N#Cc1ccc(CCCC(=O)O)c(NC(=O)[C@@H]2C[C@]23CCOc2ccc(C(=O)NCC(F)F)cc23)c1 [Example 2-32, 4-{4-Cyano-2-[({(2′R,4S)-6-[(2,2-difluoroethyl)carbamoyl]-2,3-dihydrospiro[chromene-4,1′-cyclopropan]-2′-yl}carbonyl)amino]phenyl}butanoic acid]
Remaining rate (%) [1]: 85%
IC50 [2]: 3.7 nM

N#Cc1ccc(CCCC(=O)O)c(NC(=O)[C@@H]2C[C@]23CCOc2ccc(C(=O)Nc4ccon4)cc23)c1 [Example 2-37, 4-[4-Cyano-2-({[(2′R,4S)-6-(1,2-oxazol-3-ylcarbamoyl)-2,3-dihydrospiro[chromene-4,1′-cyclopropan]-2′-yl]carbonyl}amino)phenyl]butanoic acid]
Remaining rate (%) [1]: 97%
IC50 [2]: 3.4 nM

N#Cc1ccc(CCCC(=O)O)c(NC(=O)[C@@H]2C[C@]23CCOc2ccc(C(=O)Nc4ccno4)cc23)c1 [Example 2-41, 4-[4-Cyano-2-({[(2′R,4S)-6-(1,2-oxazol-5-ylcarbamoyl)-2,3-dihydrospiro[chromene-4,1′-cyclopropan]-2′-yl]carbonyl}amino)phenyl]butanoic acid]
Remaining rate (%) [1]: 100%
IC50 [2]: 3.4 nM

N#Cc1ccc(CCCC(=O)O)c(NC(=O)[C@@H]2C[C@]23CCOc2ccc(-c4ccc(F)nc4)cc23)c1 [Example 7-17, 4-[4-Cyano-2-({[(2′R,4S)-6-(6-fluoro-3-pyridinyl)-2,3-dihydrospiro[chromene-4, 1′-cyclopropan]-2′-yl]carbonyl}amino)phenyl]butanoic acid]
Remaining rate (%) [1]: 82%
IC50 [2]: 6.1 nM

Cc1nnc(-c2ccc3c(c2)[C@]2(CCO3)C[C@H]2C(=O)Nc2cc(C#N)ccc2CCCC(=O)O)o1 [Example 3, 4-[4-Cyano-2-({[(2′R,4S)-6-(5-methyl-1,3,4-oxadiazol-2-yl)-2,3-dihydrospiro[chromene-4,1′-cyclopropan]-2′-yl]carbonyl}amino)phenyl]butanoic acid]
Remaining rate (%) [1]: 100%
IC50 [2]: 2.7 nM

CC(C)(C)NC(=O)c1ccc2c(c1)[C@]1(CCO2)C[C@H]1C(=O)Nc1cc(C#N)ccc1CCCC(=O)O [Example 2-3, 4-{4-Cyano-2-[({(2′R, 4S)-6-[(2-methyl-2-propanyl)carbamoyl]-2,3-dihydrospiro[chromene-4,1′-cyclopropan]-2′-yl}carbonyl)amino]phenyl}butanoic acid]
Remaining rate (%) [1]: 91%
IC50 [2]: 3.5 nM

COCCNC(=O)c1cc2c(cc1F)OCC[C@]21C[C@H]1C(=O)Nc1cc(C#N)ccc1CCCC(=O)O [Example 20-2, 4-{4-Cyano-2-[({(2′R,4S)-7-fluoro-6-[(2-methoxyethyl)carbamoyl]-2,3-dihydrospiro[chromene-4,1′-cyclopropan]-2′-yl}carbonyl)amino]phenyl}butanoic acid]
Remaining rate (%) [1]: 77%
IC50 [2]: 1.6 nM

CCCNC(=O)c1ccc2c(c1)[C@]1(CCO2)C[C@H]1C(=O)Nc1cc(C#N)ccc1CCCC(=O)O [Example 2-44, 4-[4-Cyano-2-({[(2′R,4S)-6-(propylcarbamoyl)-2,3-dihydrospiro[chromene-4,1′-cyclopropan]-2′-yl]carbonyl}amino)phenyl]butanoic acid]
Remaining rate (%) [1]: 100%
IC50 [2]: 2.5 nM

N#Cc1ccc(CCCC(=O)O)c(NC(=O)[C@@H]2C[C@]23CCOc2ccc(C(=O)NC4CCC4)cc23)c1 [Example 2-38, 4-[4-Cyano-2-({[(2′R,4S)-6-(cyclobutylcarbamoyl)-2,3-dihydrospiro[chromene-4,1′-cyclopropan]-2′-yl]carbonyl}amino)phenyl]butanoic acid]
Remaining rate (%) [1]: 100%
IC50 [2]: 4.7 nM

Cn1cc(NC(=O)c2ccc3c(c2)[C@]2(CCO3)C[C@H]2C(=O)Nc2cc(C#N)ccc2CCCC(=O)O)cn1 [Example 2-5]
IC50 [2]: 1.3 nM

Cn1nccc1NC(=O)c1ccc2c(c1)[C@]1(CCO2)C[C@H]1C(=O)Nc1cc(C#N)ccc1CCCC(=O)O [Example 2-43, 4-{4-Cyano-2-[({(2′R,4S)-6-[(1-methyl-1H-pyrazol-5-yl)carbamoyl]-2,3-dihydrospiro[chromene-4,1′-cyclopropan]-2′-yl}carbonyl)amino]phenyl}butanoic acid]
Remaining rate (%) [1]: 100%
IC50 [2]: 3.6 nM

N#Cc1ccc(CCCC(=O)O)c(NC(=O)[C@@H]2C[C@]23CCOc2ccc(C(=O)NC4CC4)cc23)c1 [Example 2-10, 4-[4-cyano-2-({[(2′R,4S)-6-(cyclopropylcarbamoyl)-2,3-dihydrospiro[chromene-4,1′-cyclopropan]-2′-yl]carbonyl}amino)phenyl]butanoic acid]
Remaining rate (%) [1]: 94%
IC50 [2]: 4 nM

Cc1ccc(-c2ccc3c(c2)[C@]2(CCO3)C[C@H]2C(=O)Nc2cc(C#N)ccc2CCCC(=O)O)cn1 [Example 7-16, 4-[4-Cyano-2-({[(2′R,4S)-6-(6-methyl-3-pyridinyl)-2,3-dihydrospiro[chromene-4,1′-cyclopropan]-2′-yl]carbonyl}amino)phenyl]butanoic acid]
Remaining rate (%) [1]: 80%
IC50 [2]: 5.7 nM

COCCNC(=O)c1ccc2c(c1)[C@@]1(C[C@H]1C(=O)Nc1cc(C#N)ccc1CCCC(=O)O)CC2(C)C [Example 38-1, 4-[4-Cyano-2-({[(1S,2R)-6′-[(2-methoxyethyl)carbamoyl]-3′,3′-dimethyl-2′,3′-dihydrospiro[cyclopropane-1, 1′-inden]-2-yl]carbonyl}amino)phenyl]butanoic acid]
Remaining rate (%) [1]: 69%
IC50 [2]: 5.4 nM

COc1ccc(-c2ccc3c(c2)[C@]2(CCO3)C[C@H]2C(=O)Nc2cc(C#N)ccc2CCCC(=O)O)cn1 [Example 7-13, 4-[4-Cyano-2-({[(2′R,4S)-6-(6-methoxy-3-pyridinyl)-2,3-dihydrospiro[chromene-4, 1′-cyclopropan]-2′-yl]carbonyl}amino)phenyl]butanoic acid]
Remaining rate (%) [1]: 95%
IC50 [2]: 3.5 nM
